From patent US20170000133A1, “BENZOXABOROLE FUNGICIDES” (SYNGENTA PARTICIPATIONS AG, priority 2013, published 2017)

Each molecule was assayed on Pythium ultimum (assay: Pythium ultimum / liquid culture (seedling damping off)). Conditions: Globisporangium ultimum; 200 ppm; potato dextrose broth, 24° C., 2-3 days after application; read-out: disease control (inhibition of growth determined photometrically).
Assay type: cell-based
In the case of CCCCSCCOC(=O)c1cc2c(cc1F)COB2O [Compound 384], the inhibition at 200 ppm is reported as at least 80%.
In the case of C[Si](C)(C)/C=C/COC(=O)c1cc2c(cc1F)COB2O [Compound 404], the inhibition at 200 ppm is reported as at least 80%.
COc1ccc(OCCOC(=O)c2cc3c(cc2F)COB3O)cc1 [Compound 406] showed an inhibition at 200 ppm of at least 80%.
O=C(OCC1CCC1)c1cc2c(cc1F)COB2O [Compound 413] showed an inhibition at 200 ppm of at least 80%.
O=C(OCCOc1ccc(Cl)cc1)c1cc2c(cc1F)COB2O [Compound 414] was tested, and the inhibition at 200 ppm was at least 80%.

The molecules below were run on Glomerella lagenarium (Colletotrichum lagenarium) (assay: Glomerella lagenarium (Colletotrichum lagenarium) / liquid culture (anthracnose)). Conditions: Colletotrichum orbiculare, PDB potato dextrose broth, 24° C., 3-4 days after application, read-out: disease control (inhibition of growth measured photometrically).
Assay type: cell-based
Experimental: (§1) 11. Glomerella lagenarium (Colletotrichum lagenarium)/Liquid Culture (Anthracnose): Conidia of the fungus from cryogenic storage were directly mixed into nutrient broth (PDB potato dextrose broth). After placing a DMSO solution of test compound into a 96-well microtiter plate at an application rate of 200 ppm, the nutrient broth containing the fungal spores was added. The test plates were incubated at 24° C. and the inhibition of growth was measured photometrically 3-4 days after application.
Work on CCCCCCCOC(=O)c1cc2c(cc1Cl)COB2O [Compound 195] yielded an inhibition at 200 ppm of at least 80%.
Work on CCCCSCCOC(=O)c1cc2c(cc1F)COB2O [Compound 384] yielded an inhibition at 200 ppm of at least 80%.
O=C(OCc1ccc(-c2ccccc2)cc1)c1cc2c(cc1F)COB2O [Compound 385] showed an inhibition at 200 ppm of at least 80%.
C[Si](C)(C)/C=C/COC(=O)c1cc2c(cc1F)COB2O [Compound 404] gave an inhibition at 200 ppm of at least 80%.
COc1ccc(OCCOC(=O)c2cc3c(cc2F)COB3O)cc1 [Compound 406] was tested, and the inhibition at 200 ppm was at least 80%.
O=C(OCCOc1ccc(Cl)cc1)c1cc2c(cc1F)COB2O [Compound 414] gave an inhibition at 200 ppm of at least 80%.

These molecules were tested on Mycosphaerella arachidis (Cercospora arachidicola) (assay: Mycosphaerella arachidis (Cercospora arachidicola) / liquid culture (early leaf spot)). Conditions: PDB potato dextrose broth, 24° C., 4-5 days after application, read-out: disease control (inhibition of growth determined photometrically).
Assay type: cell-based
Experimental: as §1, with “12. Mycosphaerella arachidis (Cercospora arachidicola)/Liquid” for “11. Glomerella lagenarium (Colletotrichum lagenarium)/Liquid”, “(Early Leaf Spot):” for “(Anthracnose):”, “determined” for “measured”, “4-5” for “3-4”
CCCCCCCOC(=O)c1cc2c(cc1Cl)COB2O [Compound 195] was tested, and the inhibition at 200 ppm was at least 80%.
For CCCCSCCOC(=O)c1cc2c(cc1F)COB2O [Compound 384], the inhibition at 200 ppm was at least 80%.
With O=C(OCc1ccc(-c2ccccc2)cc1)c1cc2c(cc1F)COB2O [Compound 385] the inhibition at 200 ppm was at least 80%.
In the case of C[Si](C)(C)/C=C/COC(=O)c1cc2c(cc1F)COB2O [Compound 404], the inhibition at 200 ppm is reported as at least 80%.
COc1ccc(OCCOC(=O)c2cc3c(cc2F)COB3O)cc1 [Compound 406] showed an inhibition at 200 ppm of at least 80%.
Work on O=C(OCCOc1ccc(Cl)cc1)c1cc2c(cc1F)COB2O [Compound 414] yielded an inhibition at 200 ppm of at least 80%.

Each molecule was assayed on Mycosphaerella graminicola (Septoria tritici) (assay: Mycosphaerella graminicola (Septoria tritici) / liquid culture (Septoria blotch)). Conditions: Zymoseptoria tritici, PDB potato dextrose broth, 24° C., 4-5 days after application, read-out: disease control (inhibition of growth determined photometrically).
Assay type: cell-based
Method in brief: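 Conidia from cryostorage were suspended in potato dextrose broth and added to test compound in DMSO at 200 ppm in microtiter wells. Plates were incubated at 24° C and growth inhibition measured photometrically 4-5 days after application.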
In the case of CCCCCCCOC(=O)c1cc2c(cc1Cl)COB2O [Compound 195], the inhibition at 200 ppm is reported as at least 80%.
CCCCSCCOC(=O)c1cc2c(cc1F)COB2O [Compound 384] gave an inhibition at 200 ppm of at least 80%.
In the case of O=C(OCc1ccc(-c2ccccc2)cc1)c1cc2c(cc1F)COB2O [Compound 385], the inhibition at 200 ppm is reported as at least 80%.
For C[Si](C)(C)/C=C/COC(=O)c1cc2c(cc1F)COB2O [Compound 404], the inhibition at 200 ppm was at least 80%.
COc1ccc(OCCOC(=O)c2cc3c(cc2F)COB3O)cc1 [Compound 406] showed an inhibition at 200 ppm of at least 80%.
Molecule O=C(OCC1CCC1)c1cc2c(cc1F)COB2O [Compound 413] has an inhibition at 200 ppm of at least 80%.
In the case of O=C(OCCOc1ccc(Cl)cc1)c1cc2c(cc1F)COB2O [Compound 414], the inhibition at 200 ppm is reported as at least 80%.

What follows are molecules tested on Gaeumannomyces graminis (assay: Gaeumannomyces graminis / liquid culture (take-all of cereals)). Conditions: PDB potato dextrose broth, 24° C., 4-5 days after application, read-out: disease control (inhibition of growth determined photometrically).
Assay type: cell-based
Method in brief: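 Cryo-stored mycelial fragments in potato dextrose broth exposed to compound in DMSO at 200 ppm. Incubated at 24 °C; growth inhibition read photometrically 4–5 days after application.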
In the case of CCCCCCCOC(=O)c1cc2c(cc1Cl)COB2O [Compound 195], the inhibition at 200 ppm is reported as at least 80%.
Molecule O=C(OCc1ccc(-c2ccccc2)cc1)c1cc2c(cc1F)COB2O [Compound 385] has an inhibition at 200 ppm of at least 80%.
C[Si](C)(C)/C=C/COC(=O)c1cc2c(cc1F)COB2O [Compound 404] gave an inhibition at 200 ppm of at least 80%.
For COc1ccc(OCCOC(=O)c2cc3c(cc2F)COB3O)cc1 [Compound 406], the inhibition at 200 ppm was at least 80%.
O=C(OCC1CCC1)c1cc2c(cc1F)COB2O [Compound 413] showed an inhibition at 200 ppm of at least 80%.
O=C(OCCOc1ccc(Cl)cc1)c1cc2c(cc1F)COB2O [Compound 414] was tested, and the inhibition at 200 ppm was at least 80%.

What follows are molecules tested on Monographella nivalis (Microdochium nivale) (assay: Monographella nivalis (Microdochium nivale) / liquid culture (foot rot cereals)). Conditions: PDB potato dextrose broth, 24° C., 4-5 days after application, read-out: disease control (inhibition of growth determined photometrically).
Assay type: cell-based
CCCCCCCOC(=O)c1cc2c(cc1Cl)COB2O [Compound 195] gave an inhibition at 200 ppm of at least 80%.
CCCCSCCOC(=O)c1cc2c(cc1F)COB2O [Compound 384] was tested, and the inhibition at 200 ppm was at least 80%.
O=C(OCc1ccc(-c2ccccc2)cc1)c1cc2c(cc1F)COB2O [Compound 385] gave an inhibition at 200 ppm of at least 80%.
Molecule C[Si](C)(C)/C=C/COC(=O)c1cc2c(cc1F)COB2O [Compound 404] has an inhibition at 200 ppm of at least 80%.
COc1ccc(OCCOC(=O)c2cc3c(cc2F)COB3O)cc1 [Compound 406] gave an inhibition at 200 ppm of at least 80%.
O=C(OCC1CCC1)c1cc2c(cc1F)COB2O [Compound 413] gave an inhibition at 200 ppm of at least 80%.
With O=C(OCCOc1ccc(Cl)cc1)c1cc2c(cc1F)COB2O [Compound 414] the inhibition at 200 ppm was at least 80%.

What follows are molecules tested on Fusarium culmorum (assay: microbe, parasite or virus in culture). Conditions: read-out: disease control (inhibition of growth determined visually).
Assay type: cell-based
For O=C(OCC1CCC1)c1cc2c(cc1F)COB2O [Compound 413], the inhibition at 200 ppm was at least 80%.

The molecules below were run on Thanatephorus cucumeris (Rhizoctonia solani) (assay: Thanatephorus cucumeris (Rhizoctonia solani) / liquid culture (foot rot, damping-off)). Conditions: PDB potato dextrose broth, 24° C., 3-4 days after application, read-out: disease control (inhibition of growth determined photometrically).
Assay type: cell-based
Method in brief: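 Mycelial fragments from fresh liquid culture were suspended in potato dextrose broth and added to compound in DMSO at 200 ppm. After 3-4 days at 24 °C, growth inhibition was measured photometrically.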
Molecule CCCCCCCOC(=O)c1cc2c(cc1Cl)COB2O [Compound 195] has an inhibition at 200 ppm of at least 80%.
Work on CCCCSCCOC(=O)c1cc2c(cc1F)COB2O [Compound 384] yielded an inhibition at 200 ppm of at least 80%.
With O=C(OCc1ccc(-c2ccccc2)cc1)c1cc2c(cc1F)COB2O [Compound 385] the inhibition at 200 ppm was at least 80%.
For C[Si](C)(C)/C=C/COC(=O)c1cc2c(cc1F)COB2O [Compound 404], the inhibition at 200 ppm was at least 80%.
For COc1ccc(OCCOC(=O)c2cc3c(cc2F)COB3O)cc1 [Compound 406], the inhibition at 200 ppm was at least 80%.
In the case of O=C(OCC1CCC1)c1cc2c(cc1F)COB2O [Compound 413], the inhibition at 200 ppm is reported as at least 80%.
Work on O=C(OCCOc1ccc(Cl)cc1)c1cc2c(cc1F)COB2O [Compound 414] yielded an inhibition at 200 ppm of at least 80%.
